Reference: patent publication US12552780B2, “Small molecule compound serving as jak kinase inhibitor, and use thereof” (TECHNODERMA MEDICINES, INC., priority 2020, dated 2026)
Read-outs that look alike come from different tables or passages of the source.

Legend:
Format in all cases: biochemical
[1] = target: Tyk2 (Homo sapiens, UniProt P29597); assay: Detection of enzyme activity inhibition of JAK kinases (ULight-JAK substrate, Eu-antibody), Tyk2; settings: ATP 10 μM, substrate 50 nM, 1 hour reaction at room temperature, read-out: Tyk2 half-maximum inhibitory concentration (IC50)
Sequence of Tyk2 (P29597 whole entry): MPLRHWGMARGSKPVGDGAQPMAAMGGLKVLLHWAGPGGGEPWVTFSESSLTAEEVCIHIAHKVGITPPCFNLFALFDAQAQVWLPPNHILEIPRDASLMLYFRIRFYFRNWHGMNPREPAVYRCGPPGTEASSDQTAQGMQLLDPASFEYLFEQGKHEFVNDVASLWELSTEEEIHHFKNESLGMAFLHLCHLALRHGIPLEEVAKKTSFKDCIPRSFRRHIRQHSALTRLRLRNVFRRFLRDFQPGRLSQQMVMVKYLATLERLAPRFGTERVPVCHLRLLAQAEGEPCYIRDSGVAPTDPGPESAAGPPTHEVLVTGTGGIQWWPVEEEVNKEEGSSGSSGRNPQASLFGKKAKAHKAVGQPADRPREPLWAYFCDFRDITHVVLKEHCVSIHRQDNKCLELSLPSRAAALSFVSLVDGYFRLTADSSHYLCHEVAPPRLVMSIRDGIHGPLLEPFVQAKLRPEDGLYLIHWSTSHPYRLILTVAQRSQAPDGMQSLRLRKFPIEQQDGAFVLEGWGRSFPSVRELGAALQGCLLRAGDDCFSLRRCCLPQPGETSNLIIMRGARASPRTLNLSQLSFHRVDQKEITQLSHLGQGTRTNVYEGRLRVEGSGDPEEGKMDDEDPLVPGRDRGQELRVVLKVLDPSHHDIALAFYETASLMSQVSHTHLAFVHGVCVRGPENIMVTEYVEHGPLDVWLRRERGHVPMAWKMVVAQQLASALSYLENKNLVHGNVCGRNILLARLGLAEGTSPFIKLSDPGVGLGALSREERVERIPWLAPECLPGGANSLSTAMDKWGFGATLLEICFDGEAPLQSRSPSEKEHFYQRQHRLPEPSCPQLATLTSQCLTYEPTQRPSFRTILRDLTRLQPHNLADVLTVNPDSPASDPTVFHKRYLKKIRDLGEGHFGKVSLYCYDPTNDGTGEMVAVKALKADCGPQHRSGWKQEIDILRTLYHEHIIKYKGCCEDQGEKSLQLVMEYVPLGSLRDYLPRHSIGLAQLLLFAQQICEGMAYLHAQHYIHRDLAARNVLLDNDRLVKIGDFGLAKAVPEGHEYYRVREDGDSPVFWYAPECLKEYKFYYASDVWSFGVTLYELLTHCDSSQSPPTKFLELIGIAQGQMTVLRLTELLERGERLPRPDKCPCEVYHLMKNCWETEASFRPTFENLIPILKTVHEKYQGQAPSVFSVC
Description: (§1) Kinase reaction buffer: The kinase reaction buffer was prepared with the following components: 50 mM HEPES, pH 7.5, 1 mM EGTA, 10 mM MgCl2, 2 mM DTT, and 0.01% Tween20. 1× test buffer: A test buffer was prepared, and the 10× test buffer was diluted with deionized water (deionized water: test buffer=9:1) to obtain the 1× test buffer. 4× kinase solution: JAK kinase was diluted with a kinase reaction buffer to a final concentration of 4× (JAK1:80 nM, JAK2/JAK3/Tyk2:4 nM). 4× substrate solution: ULight™-JAK (Tyr1023) substrate was diluted with the kinase reaction buffer to 200 nM (final concentration: 50 nM). 4× ATP solution: ATP was diluted with the kinase reaction buffer to a final concentration of 4× (JAK1:160 μM, JAK2/JAK3/Tyk2: 40 μM). 4× test compound solution: The compounds to be tested were dissolved in DMSO to prepare 10 mM stock solutions, which were diluted to have the desired concentrations through 3-fold gradient dilution, 10 concentrations were set for each compound, and final concentrations of the test compounds ranged from 10 μM to 0.5 nM. 4× enzyme reaction termination solution: EDTA was dissolved in a 1× test buffer to 40 mM (final concentration of EDTA: 10 mM). 4× test antibody solution: Eu-labeled test antibodies (anti-phosphotyrosine (PT66)) were diluted with 1× test buffer to 8 nM (final concentration of the antibodies: 2 nM). 2.5 μL of the 4× kinase solution and 2.5 μL of each of the 4× test compound solutions having different concentrations were added into a 384-well microwell plate sequentially, with 2 duplicate wells set for each concentration, and an enzyme solution blank control group and a negative control group (DMSO group) were also provided. The 384-well plate was oscillated to mix the enzyme and the compound uniformly, centrifuged at 1000 rpm for 1 minute, and incubated at room temperature for 60 minutes. 2.5 μL of the 4× substrate solution was added into the 384-well plate, and centrifuged at 1000 rpm for 1 minute. 2.5 μL of the 4× ATP solution was added into the 384-well plate, and centrifuged at 1000 rpm for 1 minute to start the enzyme reaction. JAK1 reacted at room temperature for 2 hours, and JAK2/JAK3/Tyk2 reacted at room temperature for 1 hour. The final concentration of each component in the JAK1 reaction was: JAK1:20 nM; substrate: 50 nM; and ATP: 40 μM. The final concentrations of the test compounds ranged from 10 μM to 0.5 nM. The final concentration of each component in the JAK2/JAK3/Tyk2 reaction was: JAK2:1 nM; substrate: 50 nM; and ATP: 10 μM. The final concentrations of the test compounds ranged from 10 μM to 0.5 nM. After the enzyme reaction ended, 5 μL of the 4× enzyme reaction termination solution was added into each well of the 384-well plate, centrifuged at 1000 rpm for 1 minute, and incubated at room temperature for 5 minutes. 5 μL of the 4× test antibody solution (final concentration of the test antibodies was 2 nM) was added into each well of the 384-well plate, centrifuged at 1000 rpm for 1 minute, and incubated at room temperature for 1 hour. After incubation of the antibodies, a signal value of each well was measured with Envision plate reader. Assuming that an inhibition rate of the enzyme solution blank control group was 100% and an inhibition rate of the negative control group (DMSO group) was 0%, an inhibition rate corresponding to each concentration was calculated. Nonlinear regression analysis was performed on the concentration logarithm values and corresponding percentage inhibition rates of the test compounds in GraphPad Prism software to obtain the half-maximum inhibitory concentrations (IC50) of the test compounds.

[2] = target: JAK2 (Homo sapiens, UniProt O60674); assay: Detection of enzyme activity inhibition of JAK kinases (ULight-JAK substrate, Eu-antibody), JAK2; settings: JAK2 1 nM, ATP 10 μM, substrate 50 nM, 1 hour reaction at room temperature, read-out: JAK2 half-maximum inhibitory concentration (IC50)
Sequence of JAK2 (O60674 whole entry): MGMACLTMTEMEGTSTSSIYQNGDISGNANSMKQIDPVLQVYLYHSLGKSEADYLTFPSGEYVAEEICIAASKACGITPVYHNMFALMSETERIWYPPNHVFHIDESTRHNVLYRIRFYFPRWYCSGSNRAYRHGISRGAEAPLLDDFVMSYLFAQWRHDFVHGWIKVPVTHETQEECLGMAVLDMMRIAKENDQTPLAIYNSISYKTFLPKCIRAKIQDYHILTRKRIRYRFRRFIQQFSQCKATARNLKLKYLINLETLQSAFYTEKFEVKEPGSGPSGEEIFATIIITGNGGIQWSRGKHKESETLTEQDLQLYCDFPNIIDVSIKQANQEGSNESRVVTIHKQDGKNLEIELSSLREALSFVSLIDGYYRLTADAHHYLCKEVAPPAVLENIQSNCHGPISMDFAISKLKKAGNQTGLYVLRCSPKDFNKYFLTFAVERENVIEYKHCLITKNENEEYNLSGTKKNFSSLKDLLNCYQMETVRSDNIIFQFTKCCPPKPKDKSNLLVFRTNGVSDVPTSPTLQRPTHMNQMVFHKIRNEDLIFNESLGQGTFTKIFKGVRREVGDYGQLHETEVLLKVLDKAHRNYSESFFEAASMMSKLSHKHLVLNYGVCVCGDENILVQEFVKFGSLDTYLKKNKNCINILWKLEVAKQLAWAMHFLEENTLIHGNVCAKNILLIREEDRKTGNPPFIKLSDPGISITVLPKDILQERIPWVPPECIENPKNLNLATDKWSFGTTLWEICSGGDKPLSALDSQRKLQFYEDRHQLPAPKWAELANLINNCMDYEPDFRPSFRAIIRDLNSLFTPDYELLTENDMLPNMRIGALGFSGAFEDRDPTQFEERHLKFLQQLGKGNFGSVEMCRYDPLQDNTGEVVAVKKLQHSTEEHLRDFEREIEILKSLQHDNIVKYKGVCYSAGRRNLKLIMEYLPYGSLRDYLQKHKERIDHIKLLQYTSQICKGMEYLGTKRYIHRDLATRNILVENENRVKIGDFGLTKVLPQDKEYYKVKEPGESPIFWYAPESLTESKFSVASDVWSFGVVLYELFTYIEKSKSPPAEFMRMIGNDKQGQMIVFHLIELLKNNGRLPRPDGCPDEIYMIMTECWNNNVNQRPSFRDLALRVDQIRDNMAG
Description: as §1

[3] = target: T1, JAK3 (Homo sapiens, UniProt P52333); assay: Detection of enzyme activity inhibition of JAK kinases (ULight-JAK substrate, Eu-antibody), JAK3; settings: ATP 10 μM, substrate 50 nM, 1 hour reaction at room temperature; read-out: JAK3 half-maximum inhibitory concentration (IC50)
T1 sequence (P52333 1-1124): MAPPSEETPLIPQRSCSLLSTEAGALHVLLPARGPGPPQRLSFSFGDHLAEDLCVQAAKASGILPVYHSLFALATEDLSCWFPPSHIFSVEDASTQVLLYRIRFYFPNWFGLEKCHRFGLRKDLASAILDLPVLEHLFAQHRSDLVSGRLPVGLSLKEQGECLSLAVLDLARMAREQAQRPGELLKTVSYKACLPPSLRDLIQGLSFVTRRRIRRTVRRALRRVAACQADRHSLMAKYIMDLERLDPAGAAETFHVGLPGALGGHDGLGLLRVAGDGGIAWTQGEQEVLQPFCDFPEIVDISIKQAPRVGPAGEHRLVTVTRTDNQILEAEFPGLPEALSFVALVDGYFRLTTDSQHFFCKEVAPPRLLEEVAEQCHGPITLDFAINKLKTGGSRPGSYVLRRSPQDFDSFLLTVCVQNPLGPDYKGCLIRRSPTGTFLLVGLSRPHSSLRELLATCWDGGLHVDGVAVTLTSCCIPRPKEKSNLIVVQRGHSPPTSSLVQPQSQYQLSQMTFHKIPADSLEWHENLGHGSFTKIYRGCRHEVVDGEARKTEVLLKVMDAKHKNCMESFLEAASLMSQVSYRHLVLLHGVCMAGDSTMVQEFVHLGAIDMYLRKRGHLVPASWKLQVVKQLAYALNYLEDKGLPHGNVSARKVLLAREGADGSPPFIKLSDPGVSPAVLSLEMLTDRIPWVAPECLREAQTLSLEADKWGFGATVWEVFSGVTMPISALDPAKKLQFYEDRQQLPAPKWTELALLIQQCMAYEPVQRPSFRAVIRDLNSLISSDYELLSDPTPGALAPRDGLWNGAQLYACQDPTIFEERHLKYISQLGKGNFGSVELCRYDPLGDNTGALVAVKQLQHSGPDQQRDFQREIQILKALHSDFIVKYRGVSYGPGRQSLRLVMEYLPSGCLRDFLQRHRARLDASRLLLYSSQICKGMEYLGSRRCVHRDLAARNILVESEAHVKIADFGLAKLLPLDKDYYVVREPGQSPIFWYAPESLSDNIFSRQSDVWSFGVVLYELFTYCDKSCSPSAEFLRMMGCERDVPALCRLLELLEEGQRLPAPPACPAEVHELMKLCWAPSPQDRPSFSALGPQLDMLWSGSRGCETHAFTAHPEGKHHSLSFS
Description: as §1

[4] = target: JAK1 (Homo sapiens, UniProt P23458); assay: Detection of enzyme activity inhibition of JAK kinases (ULight-JAK substrate, Eu-antibody), JAK1; settings: JAK1 20 nM, ATP 40 μM, substrate 50 nM, 2 hours reaction at room temperature, read-out: JAK1 half-maximum inhibitory concentration (IC50)
Sequence of JAK1 (P23458 whole entry): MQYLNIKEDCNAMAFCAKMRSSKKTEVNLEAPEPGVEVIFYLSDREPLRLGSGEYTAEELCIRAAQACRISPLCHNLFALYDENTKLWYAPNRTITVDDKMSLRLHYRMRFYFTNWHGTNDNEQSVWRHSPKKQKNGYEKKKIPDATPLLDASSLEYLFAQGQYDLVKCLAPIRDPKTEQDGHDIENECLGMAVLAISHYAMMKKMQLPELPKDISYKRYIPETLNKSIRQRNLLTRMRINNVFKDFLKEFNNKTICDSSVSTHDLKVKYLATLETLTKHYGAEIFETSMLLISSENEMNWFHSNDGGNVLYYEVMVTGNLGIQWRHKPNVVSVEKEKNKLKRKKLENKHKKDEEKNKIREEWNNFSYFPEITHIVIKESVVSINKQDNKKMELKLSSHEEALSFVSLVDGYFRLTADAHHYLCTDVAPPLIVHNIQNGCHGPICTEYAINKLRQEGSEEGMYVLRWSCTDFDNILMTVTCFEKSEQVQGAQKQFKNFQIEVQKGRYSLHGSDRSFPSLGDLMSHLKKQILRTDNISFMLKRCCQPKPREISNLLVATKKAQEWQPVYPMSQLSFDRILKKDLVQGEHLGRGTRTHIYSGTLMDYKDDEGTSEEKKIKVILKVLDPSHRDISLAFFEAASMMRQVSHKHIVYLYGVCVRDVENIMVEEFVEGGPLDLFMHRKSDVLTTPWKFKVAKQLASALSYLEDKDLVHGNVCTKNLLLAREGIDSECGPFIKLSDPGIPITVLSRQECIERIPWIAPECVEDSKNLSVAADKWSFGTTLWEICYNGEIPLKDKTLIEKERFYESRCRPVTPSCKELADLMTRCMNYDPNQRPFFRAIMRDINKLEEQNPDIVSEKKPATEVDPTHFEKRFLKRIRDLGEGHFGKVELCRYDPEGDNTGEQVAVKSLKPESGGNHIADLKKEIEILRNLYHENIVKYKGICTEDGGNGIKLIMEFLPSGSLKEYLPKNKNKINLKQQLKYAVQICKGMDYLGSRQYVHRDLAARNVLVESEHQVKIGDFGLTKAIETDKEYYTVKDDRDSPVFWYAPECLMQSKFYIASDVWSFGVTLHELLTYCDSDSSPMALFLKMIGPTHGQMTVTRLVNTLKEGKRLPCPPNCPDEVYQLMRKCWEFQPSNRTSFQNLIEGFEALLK
Description: as §1

Row | Compound | IC50 [1] | IC50 [2] | IC50 [3] | IC50 [4] | IC50 ([1]; listed as TDM-18097) | IC50 ([4]; listed as TDM-18097) | IC50 ([2]; listed as TDM-18097)
1 | CCNC(=O)c1ccc(Nc2nccc(-c3ccn(C4(CC#N)CN(C(=O)[C@@H]5CC5(F)F)C4)c3)n2)cc1 [TDM-180973, (S)-4-((4-(1-(3-(cyanomethyl)-1-(2,2-difluorocyclopropane-1-carbonyl)azetidin-3-yl)-1H-pyrrol-3-yl)pyrimidin-2-yl)amino)-N-ethylbenzamide] | 7 nM | 9 nM | 443 nM |  |  |  | 
2 | Cc1cc(Nc2nccc(-c3ccn(C4(CC#N)CN(C(=O)[C@@H]5CC5(F)F)C4)c3)n2)cnc1C(N)=O [TDM-180975, (S)-5-((4-(1-(3-(cyanomethyl)-1-(2,2-difluorocyclopropane-1-carbonyl)azetidin-3-yl)-1H-pyrrol-3-yl)pyrimidin-2-yl)amino)-3-methylpyridinolineamide] | 8 nM | 7 nM | 674 nM | 12 nM |  |  | 
3 | CNC(=O)c1ncc(Nc2nccc(-c3ccn(C4(CC#N)CN(C(=O)[C@@H]5CC5(F)F)C4)c3)n2)cc1C [TDM-180976, (S)-5-((4-(1-(3-(cyanomethyl)-1-(2,2-difluorocyclopropane-1-carbonyl)azetidin-3-yl)-1H-pyrrol-3-yl)pyrimidin-2-yl)amino)-N,3-dimethylpyridinecarboxamide] | 9 nM | 13 nM | 599 nM | 9 nM |  |  | 
4 | CCNC(=O)c1ccc(Nc2nccc(-c3cnn(C4(CC#N)CN(C(=O)[C@@H]5CC5(F)F)C4)c3)n2)cc1 [TDM-180982, (S)-4-((4-(1-(3-(cyanomethyl)-1-(2,2-difluorocyclopropane-1-carbony)azetidn-3-yl)-1H-pyrazol-4-yl)pyrimidin-2-yl)amino)-N-ethylbenzamide] | 19 nM | 22 nM | 1300 nM | 18 nM |  |  | 
5 | CCNC(=O)c1ccc(Nc2nccc(-c3cnn(C4(CC#N)CN(C(=O)[C@@H]5CC5(F)F)C4)c3)n2)cc1C [TDM-180983] | 17 nM | 27 nM | 791 nM | 45 nM |  |  | 
6 | CNC(=O)c1ncc(Nc2nccc(-c3cnn(C4(CC#N)CN(C(=O)[C@@H]5CC5(F)F)C4)c3)n2)cc1C [TDM-180985, (S)-5-((4-(1-(3-(cyanomethyl)-1-(2,2-difluorocyclopropane-1-carbonyl)azetidin-3-yl)-1H-pyrazol-4-yl)pyrimidin-2-yl)amino)-N,3-dimethylpyridinecarboxamide] | 21 nM | 64 nM | 2370 nM | 54 nM |  |  | 
7 | Cc1cc(Nc2nccc(-c3cnn(C4(CC#N)CN(C(=O)[C@@H]5CC5(F)F)C4)c3)n2)cnc1C(N)=O [TDM-180986, (S)-5-((4-(1-(3-(cyanomethyl)-1-(2,2-difluorocyclopropane-1-carbonyl)azetidin-3-yl)-1H-pyrazol-4-yl)pyrimidin2-yl)amino)-3-methylpyridinolineamide] | 56 nM | 52 nM | 3060 nM | 125 nM |  |  | 
8 | CC(CO)c1ccc(Nc2nccc(-c3cnn(C4(CC#N)CN(C(=O)[C@@H]5CC5(F)F)C4)c3)n2)cn1 (stereo partly drawn) [TDM-180990, 2-(1-((S)-2,2-difluorocyclopropane-1-carbonyl)-3-(4-(2-((6-(1-hydroxypropan-2-yl)pyridine-3-yl)amino)pyrimidin-4-yl)-1H-pyrazol-1-yl)azetidin-3-yl)acetonitrile] | 112 nM |  |  | 224 nM |  |  | 
9 | CC(CO)c1ccc(Nc2nccc(-c3ccn(C4(CC#N)CN(C(=O)[C@@H]5CC5(F)F)C4)c3)n2)cn1 (stereo partly drawn) [TDM-180996, 2-(1-((S)-2,2-difluorocyclopropane-1-carbonyl)-3-(3-(2-((6-(1-hydroxypropan-2-yl)pyridine-3-yl)amino)pyrimidin-4-yl)-1H-pyrrol-1-yl)azetidin-3-yl) acetonitrile] | 39 nM | 38 nM | 843 nM | 55 nM |  |  | 
10 | (S)-4-((4-(1-(3-(cyanomethyl)-1-(2,2-difluorocyclopropane-1-carbonyl)azetidin-3-yl)-1H-pyrrol-3-yi)pyrimidin-2-yl)amino)-N-ethyl-2-methylbenzamide [TDM-180978] | 11 nM | 12 nM | 280 nM | 7 nM | ~10 nM | ~10 nM | ~10 nM
